From patent US10478437B2, “Combination therapy to enhance the anticancer efficacy of platinum drugs” (University of Pittsburgh-of the Commonwealth System of …, priority 2014, dated 2019)
Where two headings read alike, the source gives them in different places.

Columns and labels:
[1] = system: cisplatin-resistant ovarian cancer cell line A2780cis; assay: Caspase-3/7 activity assay (apoptotic cell death), compound alone or with cisplatin; format: cell-based, human; conditions: for caspase-3/7 activity (Lum), compound with cisplatin / caspase-3/7 activity (Lum), compound alone / caspase-3/7 activity (Lum) with compound and cisplatin (20 μM) / caspase-3/7 activity (Lum) with compound alone: 20 h; for activity in the screen (Caspase-3/7 activity and microscopic examination), active / inactive: alone or in the presence of cisplatin; for activity in the screen (Caspase-3/7 activity and microscopic examination), active / inactive / Caspase-3/7 activity upon combination with cisplatin compared to cisplatin alone or compound alone / activity in the Caspase-3/7 activity assay: in words; for activity in the Caspase-3/7 activity assay: possibly interference with the assay system; for caspase-3/7 activity (Lum) with compound and cisplatin (20 μM) / caspase-3/7 activity (Lum) with compound alone: Table 6; for caspase-3/7 activity (Lum) with compound alone: untreated cells 9 ± 1
Protocol: Cell proliferation was determined using a CyQUANT Direct Cell Proliferation Assay kit (Invitrogen), the activity of caspase-3/7 was measured using a Caspase-Glo 3/7 Assay Systems (Promega, Madison, Wis.), and the MTS calorimetric survival assay was performed using the CellTiter 96 AQueous One Solution Cell Proliferation Assay kit (Promega, Madison, Wis.), according to the manufacturer's instructions. The survival fractions were calculated after setting untreated control cells at 100%. The data were plotted and curve fitted using GraphPad Prism software. To quantify the number of cells with active caspase-3, cells were fixed with 4% paraformaldehyde (Electron microscopy sciences, Hatfield, Pa.), stained with Alexa Fluor-488 conjugated antibody against cleaved caspase-3 (Asp175) (Cell Signaling Technology, Danvers, Mass.) followed by flow cytometry. An FITC Annexin V Apoptosis Detection Kit (BD PharMingen, San Diego, Calif.) was used to quantify apoptotic cells, according to the manufacturer's instructions.
A Caspase-3/7 assay was performed to evaluate the activity of the 36 compounds of FIG. 1 in vitro in the cisplatin-resistant ovarian cancer cell line, A2780cis, alone or in the presence of cisplatin. A microscopic examination of apoptotic morphologic changes was also carried out right before the measurement of Caspase-3/7 activity, in order to confirm that the data on the activation of the Caspase-3/7 following treatment is consistent with morphological change and reflects cell death.

[2] = system: cisplatin-resistant ovarian cancer cell line A2780cis; assay: CellTiter-Blue cell viability assay, compound alone or with cisplatin or carboplatin, 24 h; format: cell-based, human; conditions: for viability at 10 µM / viability at 20 µM / viability at 50 µM: Homo sapiens, A2780cis, read-out: survival (%) of cells with compound alone; for viability at 10 µM / viability at 20 µM / viability at 50 µM / survival (%) of cells with compound and cisplatin (20 μM) / Survival (%) of cells with compound and carboplatin (200 μM) / survival (%) of cells with compound alone: 24 h; for response in the CellTiter-Blue cell viability assay: in words
Protocol: Data were expressed as mean±standard deviation. A Student's t test was used for the comparisons between the treatment with the combination of analogs with cisplatin and with analogs alone. P<0.05 was considered statistically significant. Combination index was calculated using CompuSyn software. A value of 0.3-0.7 for the combination index indicates synergism, 0.1-0.3 indicates strong synergism, and <0.1 indicates very strong synergism (Chou, 2006).
To further validate the activity of the identified 11 active compounds (see FIG. 3), a CellTiter-Blue cell viability assay was performed with increasing concentrations (10 μM, 20 μM and 50 μM) of the disclosed compounds (see FIG. 4 and Table 5). Cisplatin resistant ovarian cancer cells (A2780cis) were treated with a disclosed compound alone, cisplatin alone or a combination of a compound with cisplatin for 24 h to determine the effects of the compounds on cell viability.
Analysis of the effect of the disclosed compounds with another platinum-containing compound, carboplatin, was performed. A2780cis cells were treated with carboplatin alone or with the combination of carboplatin and the disclosed compounds at indicated concentrations for 24 h followed by the analysis of cell viability.

[3] = Table 1, compound 20 μM with 20 μM cisplatin
[4] = Table 1, compound 20 μM, mean ± S.D. of triplicates
[5] = compound 10 μM, untreated cells = 100%
[6] = compound 20 μM, untreated cells = 100%
[7] = compound 50 μM, untreated cells = 100%
[8] = compound 10 μM + cisplatin 20 μM
[9] = compound 20 μM + cisplatin 20 μM
[10] = compound 50 μM + cisplatin 20 μM
[11] = Table 3, compound 20 μM with 20 μM of cisplatin

| Structure (SMILES) | activity in the screen (Caspase-3/7 activity and microscopic examination), active / inactive [1] | viability at 10 µM [2, 5] [%] | viability at 20 µM [2, 6] [%] | viability at 50 µM [2, 7] [%] | survival (%) of cells with compound and cisplatin (20 μM) [2, 8] [%] | survival (%) of cells with compound and cisplatin (20 μM) [2, 9] [%] | survival (%) of cells with compound and cisplatin (20 μM) [2, 10] [%] | caspase-3/7 activity (Lum), compound with cisplatin [1, 11] [Lum] | caspase-3/7 activity (Lum), compound alone ([1]; Table 3, compound 20 μM) [Lum] | caspase-3/7 activity (Lum), compound alone ([1]; Table 4, compound 20 μM) [Lum] | other results |
| --- | --- | --- | --- | --- | --- | --- | --- | --- | --- | --- | --- |
| O=c1c2ccccc2[nH]c(=S)n1Cc1cccnc1 [Compound 1-4] | active | 95.9 ± 2.4 | 95.6 ± 1.3 | 91.8 ± 2.9 | 89.8 ± 0.1 | 61.2 ± 3.4 | 20.9 ± 1.3 | – | – | – | caspase-3/7 activity (Lum), compound with cisplatin [1, 3]: 93 ± 5 Lum; caspase-3/7 activity (Lum), compound alone [1, 4]: 13 ± 1 Lum; caspase-3/7 activity (Lum), compound alone ([1]; Table 2, compound 20 μM): 13 ± 1 Lum; Caspase-3/7 activity upon combination with cisplatin compared to cisplatin alone or compound alone [1]: increase in Caspase-3/7 activity |
| Cc1cccc(-n2c(=S)[nH]c3cc(Cl)ccc3c2=O)c1C [Compound 1-21] | active | 102 ± 1.4 | 100 ± 1.5 | 84.9 ± 2.9 | 90.8 ± 1.4 | 63.1 ± 6.8 | 26.7 ± 2.0 | – | – | – | caspase-3/7 activity (Lum), compound with cisplatin [1, 3]: 90 ± 6 Lum; caspase-3/7 activity (Lum), compound alone [1, 4]: 17 ± 3 Lum; caspase-3/7 activity (Lum), compound alone ([1]; Table 2, compound 20 μM): 17 ± 3 Lum; Caspase-3/7 activity upon combination with cisplatin compared to cisplatin alone or compound alone [1]: increase in Caspase-3/7 activity |
| O=c1c2ccccc2[nH]c(=S)n1Cc1ccccc1 [Compound 1-30] | active | 95 ± 2.6 | 95.4 ± 0.9 | 98.1 ± 0.9 | 73.4 ± 6.9 | 52.4 ± 1.2 | 53.2 ± 5.0 | – | – | – | caspase-3/7 activity (Lum), compound with cisplatin [1, 3]: 111 ± 8 Lum; caspase-3/7 activity (Lum), compound alone [1, 4]: 18 ± 2 Lum; caspase-3/7 activity (Lum), compound alone ([1]; Table 2, compound 20 μM): 18 ± 2 Lum; Caspase-3/7 activity upon combination with cisplatin compared to cisplatin alone or compound alone [1]: increase in Caspase-3/7 activity |
| O=C1NC(=S)NC(=O)C1=Cc1c[nH]c2ccccc12 [Compound 2-7] | active | – | – | – | 91.9 ± 14.0 | 76.1 ± 6.6 | 39.4 ± 5.2 | 41 ± 3 | 25 ± 1 | 25 ± 1 | viability at 10 µM [2]: 97 ± 1.5%; viability at 20 µM [2]: 93.3 ± 3.6%; viability at 50 µM [2]: 47.2 ± 1.8% |
| Cc1ccc(NC(=S)NC(=O)c2cccs2)nc1 [Compound 2-19] | active | 97.3 ± 1.8 | 95.9 ± 2.1 | 95.1 ± 6.4 | 100.4 ± 1.2 | 85.4 ± 9.6 | 53.2 ± 16.0 | 50 ± 8 | 9 ± 1 | 9 ± 1 | – |
| COc1ccc(C(C)=C2C(=O)NC(=S)NC2=O)cc1 [Compound 2-25] | – | – | – | – | – | – | – | 24 ± 2 | 6 ± 0 | – | – |
| COc1ccc(C(C)=C2C(=O)NC(=S)NC2=O)cc1OC [Compound 2-26] | – | – | – | – | – | – | – | 21 ± 4 | 6 ± 0 | – | – |
| CCCN1C(=O)C(=C(C)NC2CCC(C)CC2)C(=O)NC1=S (centres unmarked) [Compound 2-27] | – | – | – | – | – | – | – | 19 ± 3 | 7 ± 1 | – | – |
| O=C(NC(=S)NCCc1ccccc1)C1CCCCC1 [Compound 2-28] | – | – | – | – | – | – | – | 18 ± 2 | 7 ± 1 | – | – |
| NC(=O)c1ccccc1NC(=S)NC(=O)c1ccco1 [Compound 2-29] | – | – | – | – | – | – | – | 19 ± 3 | 7 ± 1 | – | – |
| O=C(NC(=S)NCc1ccccc1)C1CCCCC1 [Compound 2-30] | – | – | – | – | – | – | – | 20 ± 5 | 6 ± 0 | – | – |
| O=C(NC(=S)Nc1ccccn1)c1ccccc1 [Compound 2-32] | active | 97.2 ± 2.9 | 96 ± 1.7 | 81.8 ± 5.2 | 102.7 ± 3.9 | 64.9 ± 10.6 | 33.4 ± 11.8 | 4 ± 1 | 0 ± 1 | 0 ± 1 | activity in the Caspase-3/7 activity assay [1]: lack of activity; response in the CellTiter-Blue cell viability assay [2]: positive response |
| CC(C)C(=O)NC(=S)Nc1nc2ccc(Cl)cc2s1 [Compound 2-33] | active | 84.8 ± 4.1 | 77.9 ± 1.1 | 65 ± 6.4 | 92.5 ± 4.8 | 70.4 ± 4.9 | 58.6 ± 7.4 | 23 ± 3 | 11 ± 2 | 11 ± 2 | activity in the Caspase-3/7 activity assay [1]: lack of activity; response in the CellTiter-Blue cell viability assay [2]: positive response |
| COc1cc(-n2c(=S)[nH]c3ccccc3c2=O)c(Cl)cc1Cl [mdivi-1, reference compound] | – | – | – | – | 87.4 ± 2.9 | 39.2 ± 2.7 | 26.3 ± 3.4 | 80 ± 11 | 20 ± 3 | 20 ± 3 | caspase-3/7 activity (Lum), compound with cisplatin [1, 3]: 102 ± 3 Lum; caspase-3/7 activity (Lum), compound alone [1, 4]: 28 ± 5 Lum; caspase-3/7 activity (Lum), compound alone ([1]; Table 2, compound 20 μM): 28 ± 5 Lum; caspase-3/7 activity (Lum) with compound and cisplatin (20 μM) ([1]; compound 5 μM + cisplatin 20 μM): 22 ± 2 Lum; caspase-3/7 activity (Lum) with compound alone ([1]; compound 5 μM): 10 ± 1 Lum; caspase-3/7 activity (Lum) with compound and cisplatin (20 μM) [1, 8]: 24 ± 3 Lum; caspase-3/7 activity (Lum) with compound alone ([1]; compound 10 μM): 10 ± 1 Lum; caspase-3/7 activity (Lum) with compound and cisplatin (20 μM) [1, 9]: 84 ± 3 Lum; caspase-3/7 activity (Lum) with compound alone ([1]; compound 20 μM): 24 ± 2 Lum; Survival (%) of cells with compound and carboplatin (200 μM) ([2]; compound 10 μM + carboplatin 200 μM): 92.6 ± 3.5%; survival (%) of cells with compound alone [2, 5]: 98.4 ± 2.4%; Survival (%) of cells with compound and carboplatin (200 μM) ([2]; compound 20 μM + carboplatin 200 μM): 75.1 ± 3.9%; survival (%) of cells with compound alone [2, 6]: 78.4 ± 3.8%; Survival (%) of cells with compound and carboplatin (200 μM) ([2]; compound 50 μM + carboplatin 200 μM): 40.6 ± 3.0%; survival (%) of cells with compound alone [2, 7]: 61.6 ± 4.4% |
